Measurements reported in US7915405B2, “2,4-disubstituted-5-aminocarbonyl-1,3-thiazole derivatives for therapeutic agent of antiinflammatory disease, method thereof for preparation, therapeutic agent for antiinflammatory disease induced by SPC activity containing the same” (Korea Research Institute of Chemical Technology, priority 2008, dated 2011).
Where two headings read alike, the source gives them in different places.

Columns and labels:
NIH 3T3 cells = experiment: Control of cellular division and proliferation induced by SPC ([3H]-thimidine incorporation); format: cell-based; settings: for IC50: compound 0.001-1 μM 30 minutes, then SPC 7 μM, 24 hours, read-out: antagonistic effect on SPC IC50; for inhibition of cellular division and proliferation induced by SPC (in words): SPC 7 μM
Procedure: Treatment of cells with sphingosylphosphorylcholine (SPC) can induce excessive cellular division and proliferation, thus causing pathological skin conditions [Desai, Biochem. Biophys. […] Accordingly, the compounds prepared in the above Examples were tested for an effect on cellular division and proliferation induced by SPC.
First, 1×10^5 (usually 1×10^4˜10^5) NIH 3T3 cells (American Type Culture Collection, Manassas, Va., USA) were dispensed and cultured on a culture plate, and then cultured in RPMI medium containing no fetal bovine serum for 24 hours to achieve serum starvation. The cells were treated with the compounds prepared in the above Examples, and FTY720, a sphingosine-1-phosphate (S1P) agonist, at concentrations of 0.001 μM, 0.01 μM, 0.1 μM and 1 μM, and were incubated for 30 minutes. Then, SPC (Biomol, Plymouth Meeting, Pa., USA) was added thereto at a concentration of 7 μM, and the cells were incubated at 37° C. for 24 hours. […] Proliferation %=(group treated with test drug−group not treated with SPC)/(group treated with SPC alone−group not treated with SPC)×100 [Equation 1]

[1] = test system: TPA-induced inflammation model; experiment: Control of inflammatory reaction in mouse TPA-induced inflammation model (ear weight and MPO activity); format: in vivo; settings: ICR mice; for Inhibition (%) of inflammatory reaction (ear edema, ear weight) / Inhibition (%) (MPO inhibition): 0.3% in acetone, 20 μl on the ear at 1 hour and 6 hours after TPA; for Inhibition (%) of inflammatory reaction (ear edema, ear weight): measured at 24 hours; for inhibition of TPA-induced inflammatory reactions, ear edema and MPO activity (in words): 0.3% topical, compared with hydrocortisone; for Inhibition (%) (MPO inhibition): value in brackets, MPO activity of ear at 24 hours
Procedure: In order to examine an inhibitory effect on inflammatory reactions, the following test was carried out using tetradecanoyl phorbol acetate (hereinafter referred to as “TPA”)-induced inflammation model.
The TPA-induced inflammation model was a test method which has been widely used to test inflammatory reaction mechanisms and the effect of inhibitory substances [De Young L M et al., Agents and Actions, 1989, 26, 335-341]. When TPA which is a substance causing an inflammatory reaction is applied to the ear of a test subject, erythema and edema occur. Such inflammatory reactions are measurable through the increase in the activity of myeloperoxidase (MPO) which is essential for bacterial invasion into white blood cells.
Forty 6-week-old ICR mice were prepared, and 20 μl of a TPA solution (Sigma Aldrich Korea) obtained by dissolving TPA in acetone at a concentration of 125 μg/ml was applied to the left ear of each animal. At 1 hour after the application of TPA, 20 μl of each of acetone, the compounds of Examples dissolved in acetone at a concentration of 0.3%, and hydrocortisone (Sigma Aldrich Korea) dissolved in acetone at a concentration of 0.3% was applied to the TPA-applied site, and at 6 hours after the application of TPA, it was applied again to the same site in the same amount (20 μl). At 24 hours after the application of TPA, the mice were sacrificed by cervical dislocation, and the left ear was collected in a given width and measured for weight and MPO activity. Inhibition % of inflammatory reactions was calculated according to the following equation 3, and the results are shown in Table 4 below. Inhibition %=(group treated with TPA alone−group treated with test drug)/(group treated with TPA alone−group not treated with TPA)×100 [Equation 3]

[2] = Mus musculus, NIH3T3, serum starved

Row | SMILES | IC50 (NIH 3T3 cells; serum starved) [nM] | Inhibition (%) of inflammatory reaction (ear edema, ear weight) [1] [%] | further results
1 | Cc1ccccc1N1CCN(c2nc(NC(=O)C(C)(C)C)c(C(=O)N3CCCCC3)s2)CC1 [Example 1-32] | 45 | 43 | 
2 | C[C@]12CCC(=O)C=C1CC[C@@H]1[C@@H]2[C@@H](O)C[C@@]2(C)[C@H]1CC[C@]2(O)C(=O)CO [Hydrocortisone, hydrocortisone, reference compound] |  | 85 | 
3 | CC(C)(C)C(=O)Nc1nc(N2CCN(c3ccccc3F)CC2)sc1C(=O)N1CCCCC1 [Example 1-33] | 10.9 | 47 | 
4 | CC(C)(C)C(=O)Nc1nc(NCCN2CCCCC2)sc1C(=O)N1CCOCC1 [Example 1-12, N-{5-(morpholine-4-carbonyl)-2-[2-(piperidin-1-yl)ethylamino]thiazol-4-yl}pivalamide] |  | 86 | IC50 (NIH 3T3 cells; [2]): 5.81 nM; inhibition of cellular division and proliferation induced by SPC (in words) (NIH 3T3 cells): dose-dependently inhibited; inhibition of TPA-induced inflammatory reactions, ear edema and MPO activity (in words) [1]: significantly inhibited; Inhibition (%) (MPO inhibition) [1]: 80%
5 | CCCCCCCCc1ccc(CCC(N)(CO)CO)cc1 [FTY720, reference compound] |  |  | inhibition of cellular division and proliferation induced by SPC (in words) (NIH 3T3 cells): did not inhibit
6 | CCCCC(=O)Nc1nc(NCc2ccccc2)sc1C(=O)N1CCOCC1 [Example 1-19] | 79 |  | 
7 | COc1ccccc1N1CCN(c2nc(NC(C)=O)c(C(=O)N3CCOCC3)s2)CC1 [Example 1-23] | 850 |  | 
8 | CCCCC(=O)Nc1nc(NCCN2CCCCC2)sc1C(=O)N1CCCCC1 [Example 1-42] | 102 |  | 
9 | CC(C)(C)C(=O)Nc1nc(N2CCN(c3ccccc3)CC2)sc1C(=O)N1CCOCC1 [Example 1-5] | 189 | 30 | 
10 | COc1ccccc1N1CCN(c2nc(NC(=O)C(C)(C)C)c(C(=O)N3CCCC3)s2)CC1 [Example 1-49] | 178 | 38 | 
11 | CC(C)(C)C(=O)Nc1nc(NCc2ccccc2)sc1C(=O)N1CCCCC1 [Example 1-29, N-[2-(benzylamino)-5-(piperidine-1-carbonyl)thiazol-4-yl]pivalamide] |  | 87 | IC50 (NIH 3T3 cells; [2]): 6.12 nM; inhibition of cellular division and proliferation induced by SPC (in words) (NIH 3T3 cells): dose-dependently inhibited; inhibition of TPA-induced inflammatory reactions, ear edema and MPO activity (in words) [1]: significantly inhibited; Inhibition (%) (MPO inhibition) [1]: 83%
12 | CC(C)(C)C(=O)Nc1nc(N2CCC(N3CCCCC3)CC2)sc1C(=O)N1CCCCC1 [Example 1-38] | 176 |  | 
13 | CC(C)(C)C(=O)Nc1nc(N2CCN(c3ccccc3C#N)CC2)sc1C(=O)N1CCCCC1 [Example 1-35] | 94 |  | 
14 | COc1ccccc1N1CCN(c2nc(NC(=O)C3CC3)c(C(=O)N3CCOCC3)s2)CC1 [Example 1-25] | 67 |  | 
15 | CC(C)(C)C(=O)Nc1nc(NCc2ccccc2)sc1C(=O)N1CCOCC1 [Example 1-10] | 68 | 68 | 
16 | CCCCC(=O)Nc1nc(N2CCC(N3CCCC3)CC2)sc1C(=O)N1CCCCC1 [Example 1-44] | 88.3 | 57 | 
17 | CC(C)(C)C(=O)Nc1nc(N2CCC(N3CCOCC3)CC2)sc1C(=O)N1CCOCC1 [Example 1-14] | 9.3 | 71 | 
18 | CCCCC(=O)Nc1nc(NCCN2CCCCC2)sc1C(=O)N1CCOCC1 [Example 1-20] | 7.5 | 62 | 

Row | SMILES | IC50 (NIH 3T3 cells; serum starved) [nM] | Inhibition (%) of inflammatory reaction (ear edema, ear weight) [1] [%] | further results
19 | COc1ccccc1N1CCN(c2nc(NC(=O)C3CCCCC3)c(C(=O)N3CCOCC3)s2)CC1 [Example 1-24] | 910 |  | 
20 | CCCCC(=O)Nc1nc(N2CCC(N3CCOCC3)CC2)sc1C(=O)N1CCOCC1 [Example 1-21] | 57 | 52 | 
21 | CC(C)(C)C(=O)Nc1nc(N2CCC(N3CCOCC3)CC2)sc1C(=O)N1CCCCC1 [Example 1-37] | 89 | 44 | Inhibition (%) (MPO inhibition) [1]: 47%
22 | CC(C)(C)C(=O)Nc1nc(NCCN2CCCCC2)sc1C(=O)N1CCCCC1 [Example 1-30] | 878 | 59 | 
23 | CC(C)(C)C(=O)Nc1nc(N2CCN(c3ccc(Cl)cc3)CC2)sc1C(=O)N1CCOCC1 [Example 1-8] | 730 |  | 
24 | CC(C)(C)C(=O)Nc1nc(N2CCCCC2)sc1C(=O)N1CCOCC1 [Example 1-1] |  | 21 | IC50 (NIH 3T3 cells; [2]): 932 nM
25 | CC(C)(C)C(=O)Nc1nc(NCC2CC2)sc1C(=O)N1CCCCC1 [Example 1-27] | 308 |  | 
26 | CC(C)(C)C(=O)Nc1nc(NCc2ccccc2)sc1C(=O)N1CCCC1 [Example 1-45] | 970 |  | 
27 | CC(C)(C)C(=O)Nc1nc(N2CCC(N3CCCCC3)CC2)sc1C(=O)N1CCOCC1 [Example 1-16] | 103 |  | 
28 | CC(C)(C)C(=O)Nc1nc(N2CCN(c3ccc(F)cc3)CC2)sc1C(=O)N1CCCCC1 [Example 1-34] | 57 |  | 
29 | CC(C)(C)C(=O)Nc1nc(NCCN2CCCC2)sc1C(=O)N1CCOCC1 [Example 1-13] | 12.7 |  | 
30 | CC(C)(C)C(=O)Nc1nc(N2CCN(c3ccccn3)CC2)sc1C(=O)N1CCCCC1 [Example 1-36] | 540 |  | 
31 | CC(C)(C)C(=O)Nc1nc(N2CCC(N3CCCC3)CC2)sc1C(=O)N1CCOCC1 [Example 1-15] | 20.7 |  | 
32 | CC(C)(C)C(=O)Nc1nc(NCC2CCCCC2)sc1C(=O)N1CCCCC1 [Example 1-28] | 716 | 43 | 
33 | COc1ccc(CNc2nc(NC(=O)C(C)(C)C)c(C(=O)N3CCOCC3)s2)cc1 [Example 1-11] | 93.7 | 49 | 
34 | COc1ccccc1N1CCN(c2nc(NC(=O)C(C)(C)C)c(C(=O)N3CCOCC3)s2)CC1 [Example 1-7] | 271 |  | 
35 | CCCCC(=O)Nc1nc(NCc2ccccc2)sc1C(=O)N1CCCCC1 [Example 1-41] | 9.8 | 51 | 
36 | CCCCC(=O)Nc1nc(N2CCC(N3CCCC3)CC2)sc1C(=O)N1CCOCC1 [Example 1-22] | 96 | 53 | Inhibition (%) (MPO inhibition) [1]: 48%
